From PMC6941357, “An in vitro toolbox to accelerate anti-malarial drug discovery and development” (Malaria Journal, 2020)
Like-named read-outs stand apart in the source and are kept apart here. Marks after values point to notes of the source that are not given here.

Tests used:
[1] = target: T1, CYP1A2 (Homo sapiens, UniProt P05177); assay: Cytochrome P450 inhibition in human liver microsomes
T1 sequence (P05177 1-516): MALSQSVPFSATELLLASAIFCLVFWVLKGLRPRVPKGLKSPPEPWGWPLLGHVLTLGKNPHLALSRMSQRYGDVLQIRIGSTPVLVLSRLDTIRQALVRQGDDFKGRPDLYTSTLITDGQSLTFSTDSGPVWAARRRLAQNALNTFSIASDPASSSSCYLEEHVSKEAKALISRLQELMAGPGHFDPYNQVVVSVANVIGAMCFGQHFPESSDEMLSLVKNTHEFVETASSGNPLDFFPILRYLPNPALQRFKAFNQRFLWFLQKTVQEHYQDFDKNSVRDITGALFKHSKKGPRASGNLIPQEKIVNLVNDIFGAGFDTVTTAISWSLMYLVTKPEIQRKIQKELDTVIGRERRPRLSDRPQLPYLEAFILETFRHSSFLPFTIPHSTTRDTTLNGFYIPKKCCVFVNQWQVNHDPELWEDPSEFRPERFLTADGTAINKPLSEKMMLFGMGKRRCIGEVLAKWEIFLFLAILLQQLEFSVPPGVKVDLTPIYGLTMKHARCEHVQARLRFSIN
Procedure, shortened: (§1)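 Activity of each isoform followed via a specific probe-substrate metabolite formed in human liver microsomes; reactions quenched with ice-cold acetonitrile and metabolite measured by LC–MS. Percent inhibition taken versus metabolite formation without inhibitor; Km from metabolite formation rate (pmol/min/mg protein) across substrate concentrations.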

[2] = target: CYP2C19 (Homo sapiens, UniProt P33261); assay: as above; conditions: for inhibition at 20 µM: human, pH 7.4
Sequence of CYP2C19 (P33261 whole entry): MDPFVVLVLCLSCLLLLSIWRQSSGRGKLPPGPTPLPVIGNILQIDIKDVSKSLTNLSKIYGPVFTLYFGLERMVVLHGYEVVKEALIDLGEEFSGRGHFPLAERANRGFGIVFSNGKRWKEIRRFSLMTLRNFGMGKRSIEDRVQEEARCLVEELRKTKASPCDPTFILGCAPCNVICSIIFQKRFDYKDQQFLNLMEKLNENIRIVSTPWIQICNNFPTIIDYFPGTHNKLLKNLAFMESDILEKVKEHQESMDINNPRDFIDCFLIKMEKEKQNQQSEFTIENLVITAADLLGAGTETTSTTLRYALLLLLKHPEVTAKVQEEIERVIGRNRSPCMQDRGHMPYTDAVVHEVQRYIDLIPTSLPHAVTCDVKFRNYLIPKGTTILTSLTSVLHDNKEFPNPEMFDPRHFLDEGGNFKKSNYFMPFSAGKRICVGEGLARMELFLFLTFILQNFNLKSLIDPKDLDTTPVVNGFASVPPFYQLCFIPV
Procedure, shortened: as §1

[3] = target: CYP3A4 (Homo sapiens, UniProt P08684); assay: as above; conditions: for inhibition at 20 µM: human
Sequence of CYP3A4 (P08684 whole entry): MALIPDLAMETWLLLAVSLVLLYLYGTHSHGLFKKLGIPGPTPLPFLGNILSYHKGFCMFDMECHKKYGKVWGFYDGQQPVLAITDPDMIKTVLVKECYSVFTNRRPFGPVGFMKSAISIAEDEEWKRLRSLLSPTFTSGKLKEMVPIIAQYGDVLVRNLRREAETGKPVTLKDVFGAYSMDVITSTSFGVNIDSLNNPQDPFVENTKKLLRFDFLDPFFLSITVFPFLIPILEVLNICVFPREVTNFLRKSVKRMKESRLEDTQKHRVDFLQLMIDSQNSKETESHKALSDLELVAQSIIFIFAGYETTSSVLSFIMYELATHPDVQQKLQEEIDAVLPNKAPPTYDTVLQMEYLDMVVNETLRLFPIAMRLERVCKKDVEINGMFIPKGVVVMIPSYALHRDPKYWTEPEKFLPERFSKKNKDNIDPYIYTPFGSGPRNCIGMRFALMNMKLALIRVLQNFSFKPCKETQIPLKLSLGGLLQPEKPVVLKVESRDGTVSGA
Procedure, shortened: as §1

[4] = target: CYP2D6 (Homo sapiens, UniProt P10635); assay: as above
Sequence of CYP2D6 (P10635 whole entry): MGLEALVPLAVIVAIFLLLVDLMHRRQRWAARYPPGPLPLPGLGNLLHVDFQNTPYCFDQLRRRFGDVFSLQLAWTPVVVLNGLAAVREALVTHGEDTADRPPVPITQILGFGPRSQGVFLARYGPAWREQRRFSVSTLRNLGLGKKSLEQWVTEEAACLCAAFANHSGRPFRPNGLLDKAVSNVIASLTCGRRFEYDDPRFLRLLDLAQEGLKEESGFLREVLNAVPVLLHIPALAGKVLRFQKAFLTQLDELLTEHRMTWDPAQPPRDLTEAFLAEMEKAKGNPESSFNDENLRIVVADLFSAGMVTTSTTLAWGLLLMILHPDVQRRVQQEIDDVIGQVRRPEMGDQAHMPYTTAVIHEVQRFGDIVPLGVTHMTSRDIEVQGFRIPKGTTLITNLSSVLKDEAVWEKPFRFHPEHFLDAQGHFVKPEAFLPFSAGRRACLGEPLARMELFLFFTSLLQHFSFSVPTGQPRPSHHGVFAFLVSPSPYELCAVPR
Procedure, shortened: as §1

[5] = system: human liver microsomes; assay: in vitro; conditions: for HLM CLint: microsomes
Procedure, shortened: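 Intrinsic clearance (µL/min/mg protein) came from the first-order substrate-depletion rate in human liver microsomes, using only the initial log-linear phase where kinetics deviated. Samples were quenched at 2, 5, 15, 30 and 60 min and quantified by LC–MS. Unbound CLint was obtained by dividing by microsomal fu.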

[6] = Binding to human liver microsomes via ultracentrifugation; type: in vitro ADME; conditions: human, read-out: Fraction unbound, HLM
Experimental: A suspension of human liver microsomes (HLM, XenoTech LLC, Lenexa, KS, USA) was prepared in 0.1 M phosphate buffer (pH 7.4) at a protein concentration of 0.4 mg/mL immediately prior to the experiment.
An ultracentrifugation method adapted from a previous publication was initially used to assess plasma protein binding and binding in the other media. […] Additional ultracentrifuge tubes containing spiked matrix were maintained at 37 °C, 5% or 10% CO2 or normal atmosphere conditions, with aliquots being taken within 0.5 h of the start and at the end of ultracentrifugation to serve as controls for the assessment of stability and to obtain a measure of the total concentration (Ctotal). Following ultracentrifugation, the pH was checked and an aliquot of protein-free supernate was taken from each ultracentrifuge tube for determination of the unbound concentration (Cunbound).
Total matrix and protein free samples were analysed using a matrix matching approach whereby each sample was mixed in a 1:1 ratio with the opposite blank medium (i.e. blank total matrix or blank protein free buffer). For example, plasma samples were mixed with blank pH 7.4 buffer whereas plasma supernatant samples were mixed with blank plasma. Each of the sample sets were then assayed against a common calibration curve prepared in a 1:1 mixture of total matrix and protein free pH 7.4 buffer. […] The standard deviation for fu was calculated using the propagation of errors approach as described previously. The potential for compound degradation was assessed by comparing the average value for Ctotal at the start and end of the experiment.

[7] = system: human plasma; conditions: methods UF, ED, EP or not described per compound, ref [6]–[22] of Additional file 1; cited from earlier work
[8] = human liver microsomes, at max conc, nmi = no measurable inhibition
[9] = liver microsomes, pH 7.4, 0.4 mg/mL protein
[10] = CYP3A4 (midaz) IC50, human liver microsomes, CYP3A4 (midaz), highest concentration tested 20 µM
[11] = CYP3A4 (test) IC50, human liver microsomes, CYP3A4 (test), highest concentration tested 20 µM
[12] = microsomes, pH 7.4, CYP3A4 (test) % inhibition at max conc
[13] = microsomes, pH 7.4, CYP3A4 (midaz) % inhibition at max conc

Row | SMILES | IC50 [1] | IC50 [2] | IC50 [4] | Ki [4] | fraction unbound at […] [6, 9] | CYP3A4 (midaz) % inhibition at max conc ([3]; microsomes) | CYP2D6 % inhibition at max conc ([4]; microsomes) | CYP1A2 % inhibition at max conc ([1]; microsomes) | CYP2C19 % inhibition at max conc ([2]; microsomes) | IC50 [3, 10] | IC50 [3, 11] | CYP3A4 (test) % inhibition at max conc ([3]; microsomes) | Literature fu [7] | other results
1 | CCCCN(CCCC)CCC(O)c1cc2c(Cl)cc(Cl)cc2c2cc(C(F)(F)F)ccc12 (centres unmarked) [Halofantrine] | > 20 µM | > 20 µM | 0.27 µM | 0.19 µM | 0.002 ± 0.0002 |  |  |  |  |  |  |  |  | CYP1A2 % inhibition at max conc [1, 8]: nmi; CYP2C19 % inhibition at max conc [2, 8]: nmi; inhibition at 20 µM ([3]; microsomes, pH 7.4, CYP3A4 (midaz) % inhibition at max conc, human liver microsomes, CYP3A4 (midaz), at max conc, nmi = no measurable inhibition): 24%; inhibition at 20 µM ([3]; microsomes, pH 7.4, CYP3A4 (test) % inhibition at max conc, human liver microsomes, CYP3A4 (test), at max conc, nmi = no measurable inhibition): 19%; Unbound CLint ([5]; human, 1 µM, pH 7.4): 13,500 µL/min/mg
2 | COc1cc(N[C@H](C)CCCN)c2nccc(C)c2c1Oc1ccc(Cl)c(Cl)c1 [NPC1161B] |  |  |  |  |  | 37% | 39% |  |  |  |  |  |  | IC50 ([1]; microsomes): 6.5 µM; Ki ([1]; microsomes): 3.8 µM; IC50 ([2]; microsomes): 9.6 µM; Ki ([2]; microsomes): 5.7 µM; Ki ([3]; microsomes): 8.2 µM; IC50 ([4]; microsomes): > 20 µM; HLM CLint ([5]; human): < 7^b µL/min/mg
3 | CCCCN(CCCC)CC(O)c1cc(Cl)cc2c1-c1ccc(Cl)cc1/C2=C/c1ccc(Cl)cc1 (centres unmarked) [Lumefantrine] | > 20 µM | > 20 µM | 2.9 µM | 1.8 µM |  | nmi |  | nmi | nmi | > 20 µM | > 20 µM | nmi | 0.003 | 
4 | CC(C)(C)NCc1cc(Nc2ccnc3cc(Cl)ccc23)c2c(c1O)CCCC2 [Naphthoquine] |  |  |  |  |  | 41% |  | 33% | nmi |  |  | 38% |  | IC50 ([1]; microsomes): > 20 µM; IC50 ([2]; microsomes): > 20 µM; IC50 ([3]; microsomes): > 20 µM; IC50 ([4]; microsomes): 1.1 µM; Ki ([4]; microsomes): 0.68 µM; Unbound CLint [5]: 68.6 µL/min/mg; HLM CLint ([5]; human): 14.4 µL/min/mg
5 | [H]/N=C(\N/C(=N/[H])Nc1ccc(Cl)cc1)NC(C)C [Proguanil] | > 20 µM | > 20 µM | 3.5 µM | 2.2 µM | 0.33 ± 0.014 | nmi |  | nmi |  |  |  |  | 0.25 | inhibition at 20 µM ([2]; microsomes): 27%; inhibition at 20 µM [3, 12]: 24%
6 | COc1cc2[nH]c(C)c(-c3ccc(Oc4ccc(OC(F)(F)F)cc4)cc3)c(=O)c2cc1Cl [ELQ300] |  |  |  |  |  |  |  | nmi | 41% |  |  | nmi |  | IC50 ([1]; microsomes): > 20 µM; IC50 ([2]; microsomes): > 20 µM; IC50 ([3]; microsomes): > 20 µM; IC50 ([4]; microsomes): 8 µM; Ki ([4]; microsomes): 5 µM; Unbound CLint [5]: < 3500^c µL/min/mg; HLM CLint ([5]; human): < 7^b µL/min/mg
7 | C[C@H]1c2cccc(O)c2C(=O)C2=C(O)[C@]3(O)C(=O)C(C(N)=O)=C(O)[C@@H](N(C)C)[C@@H]3[C@@H](O)[C@@H]21 [Doxycyclin] |  | > 20 µM | > 20 µM |  | 0.93 ± 0.045 | nmi | nmi |  | nmi | > 20 µM | > 20 µM |  | 0.12 | inhibition at 20 µM [3, 12]: 22%
8 | C[C@H]1[C@@H](O)O[C@@H]2O[C@@]3(C)CC[C@H]4[C@H](C)CC[C@@H]1[C@@]24OO3 [Dihydroartemisinin] | 11 µM | > 20 µM | > 20 µM |  |  | nmi | nmi |  | nmi | > 20 µM | > 20 µM | nmi | 0.092 | Ki [1]: 6.2 µM; fraction unbound at […] ([6]; liver microsomes, pH 7.4, instability evident, estimate only): 0.87 ± 0.1
9 | CC[C@H]1OC(=O)[C@H](C)[C@@H](O[C@H]2C[C@@](C)(OC)[C@@H](O)[C@H](C)O2)[C@H](C)[C@@H](O[C@@H]2O[C@H](C)C[C@H](N(C)C)[C@H]2O)[C@](C)(O)C[C@@H](C)CN(C)[C@H](C)[C@@H](O)[C@]1(C)O [Azithromycin] | > 20 µM | > 20 µM | > 20 µM |  | 0.7 ± 0.06 |  | nmi | nmi |  |  |  |  | 0.5-0.88 | inhibition at 20 µM ([2]; microsomes): 29%
10 | CS(=O)(=O)O.FC1CCN(CCOc2ccc(C3CCC4(CC3)OOC3(OO4)C4CC5CC(C4)CC3C5)cc2)CC1 (centres unmarked) [TDD-E209] |  |  |  |  |  |  |  |  |  |  |  |  |  | Unbound CLint [5]: 85,000 µL/min/mg
11 | CC(C)NC(=N)NC(=N)Nc1ccc(Cl)c(Cl)c1 [Chlorproguanil] | > 20 µM | > 20 µM | 1.4 µM | 0.87 µM | 0.052 ± 0.004 | nmi |  | nmi |  | > 20 µM | > 20 µM |  |  | inhibition at 20 µM ([2]; microsomes): 39%; inhibition at 20 µM [3, 12]: 41%
12 | CO[C@H]1O[C@@H]2O[C@@]3(C)CC[C@H]4[C@H](C)CC[C@@H]([C@H]1C)[C@@]24OO3 [Artemether] | > 20 µM | > 20 µM | > 20 µM |  | 0.5 ± 0.052 |  | nmi | nmi | nmi | > 20 µM | > 20 µM |  | 0.046 | inhibition at 20 µM [3, 13]: 39%; inhibition at 20 µM [3, 12]: 37%
13 | CN(C)C[c-]1cccc1CNc1ccnc2cc(Cl)ccc12.[Fe+2].c1cc[cH-]c1 (centres unmarked) [Ferroquine] |  |  |  |  |  |  |  | nmi | nmi |  |  | 42% |  | IC50 ([1]; microsomes): > 20 µM; IC50 ([2]; microsomes): > 20 µM; Ki ([3]; microsomes): 5.2 µM; IC50 ([4]; microsomes): 0.83 µM; Ki ([4]; microsomes): 0.52 µM; Unbound CLint [5]: 108 µL/min/mg; HLM CLint ([5]; human): 29.2 µL/min/mg
14 | Clc1ccc2c(N3CCN(CCCN4CCN(c5ccnc6cc(Cl)ccc56)CC4)CC3)ccnc2c1 [Piperaquine] | > 20 µM | > 20 µM | > 20 µM |  | 0.013 ± 0.002 |  | nmi | nmi | nmi | 4.5 µM | > 20 µM | nmi | < 0.001 | Ki ([3]; CYP3A4 (midaz) Ki, human liver microsomes, CYP3A4 (midaz)): 3.2 µM
15 | COc1ccc2nc3cc(Cl)ccc3c(Nc3cc(CN4CCCC4)c(O)c(CN4CCCC4)c3)c2n1 [Pyronaridine] | > 20 µM | > 20 µM | 1.2 µM | 0.75 µM | 0.29 ± 0.018 |  |  |  | nmi | > 20 µM | > 20 µM | nmi | < 0.35 | inhibition at 20 µM ([1]; human, microsomes, pH 7.4): 30%; inhibition at 20 µM [3, 13]: 28%
16 | COc1cc(NC(C)CCCN)c2ncccc2c1 (centres unmarked) [Primaquine] |  |  |  |  |  |  |  |  |  |  |  | nmi | 0.35-0.55 | inhibition at 20 µM ([2]; microsomes): 34%; inhibition at 20 µM [3, 13]: 31%; inhibition at 20 µM ([4]; human, microsomes, pH 7.4): 33%; fraction unbound at […] ([6]; microsomes, pH 7.4, 0.4 mg/mL protein): 0.56 ± 0.05
